Each block holds one compound with its values, some of them ahead of it.
Legend:
[1] = target: T1, Human Serum Albumin (HSA) (Homo sapiens, UniProt P02768); assay: K-37 fluorescence bound to HSA with and without octanoate (Example 4); assay type: binding
Procedure: (§1) The dye K-37 was added at a concentration of 0.5 mM to LDL at a total lipid concentration of 5 mM, in the presence and absence of 50 mg/ml HSA. Measurements were made with and without the addition of 0.1 M sodium octanoate, which acted as a ligand binding inhibitor.

[2] = target: T1, Human Serum Albumin (HSA); assay: Nile Red fluorescence bound to HSA with and without octanoate (Example 5); assay type: binding
Procedure: as §1
Following the findings described in Example 4, concerning the addition of octanoate to block the hydrophobic binding sites of HSA, the inventors then observed that Nile Red also binds to HSA and fluoresces. This additional fluorescence of Nile Red when bound to HSA also causes a substantial background signal, which distorts and thereby causes significant errors in the measurement of HDL. They therefore decided to block the hydrophobic binding sites in HSA with the same ligand binding inhibitor as for K-37 blocking, i.e. sodium octanoate. The experiments conducted with Nile Red and HSA, were based on those discussed in Example 4, and all using 0.5 mM Nile Red.

[3] = target: drug binding domain of HSA (Homo sapiens, UniProt P02768); assay: Blocking the drug binding domain of HSA in the HDL/Nile red assay
Source text: This led the inventors to realise that the HDL/Nile red assay may be improved further by using an additional blocker. They tried agents that block the drug binding domain of HSA. […] The benzoic acid has the added bonus of quenching the Nile Red residual fluorescence in solution by about 20%.

[4] = Excitation and emission maxima of the dyes; assay type: physicochemical

T1 sequence (P02768 25-609): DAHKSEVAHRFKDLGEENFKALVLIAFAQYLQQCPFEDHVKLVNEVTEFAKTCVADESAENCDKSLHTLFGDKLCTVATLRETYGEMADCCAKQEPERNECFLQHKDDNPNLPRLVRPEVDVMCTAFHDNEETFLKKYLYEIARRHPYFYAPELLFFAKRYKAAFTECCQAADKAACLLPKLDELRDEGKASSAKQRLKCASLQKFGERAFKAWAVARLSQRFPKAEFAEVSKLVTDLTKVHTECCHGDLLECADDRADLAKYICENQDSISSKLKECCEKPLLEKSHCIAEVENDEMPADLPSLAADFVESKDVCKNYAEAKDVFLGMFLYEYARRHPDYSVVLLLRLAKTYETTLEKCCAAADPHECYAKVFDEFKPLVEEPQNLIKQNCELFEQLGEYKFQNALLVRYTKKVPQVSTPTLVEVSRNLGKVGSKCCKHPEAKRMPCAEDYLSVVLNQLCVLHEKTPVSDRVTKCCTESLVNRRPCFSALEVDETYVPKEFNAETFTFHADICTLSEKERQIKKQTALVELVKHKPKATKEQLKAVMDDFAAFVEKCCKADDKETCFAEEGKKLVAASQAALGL
drug binding domain of HSA, sequence (P02768 25-609): as above

Fluorescence Intensity ([1]; 0.5 mM K-37 plus 50 mg/ml HSA): 79300 units | Fluorescence Intensity ([1]; 0.5 mM K-37 plus 50 mg/ml HSA + 0.1 M sodium octanoate): 3600 units
SMILES: CN(C)c1ccc(/C=C/C(=O)c2ccc(S(=O)(=O)C(F)F)cc2)cc1 [K-37, 4-dimethylamino-4′-difluoromethyl-sulphonyl-benzylidene-acetophenone]

SMILES: CCN(CC)c1ccc2nc3c4ccccc4c(=O)cc-3oc2c1 [Nile Red]
Fluorescence Intensity ([2]; 0.5 mM Nile Red plus 50 mg/ml HSA): 58.905 units | Fluorescence Intensity ([2]; 0.5 mM Nile Red plus 50 mg/ml HSA + 50 mM octanoate): 9.118 units

SMILES: O=C(O)c1ccccc1 [benzoic acid]
quenching of the Nile Red residual fluorescence in solution [3]: about 20% | displacement of Nile Red from HSA ([3]; at about 5 mM, without affecting the lipoprotein fluorescence): worked to displace the Nile Red from HSA

SMILES: c1cc2ccc3cccc4ccc(c1)c2c34 [pyrene]
excitation maximum [4]: 320 nm
